Results: patent US10828301B2, “2,4-pyrimidinediamine compounds and their uses” (Rigel Pharmaceuticals, Inc, priority 2002, dated 2020)

Tests used:
[1] = test system: cultured human mast cells (CHMC); test: CHMC low cell density IgE activation: tryptase and LTC4 assays; assay type: cell-based; conditions: read-out: CHMC anti-IgE Tryptase
In short: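 Cultured human mast cells at low density (1000-1500 per well) rested 1 h at 37° C, then stimulated with anti-IgE for 30 min at 37° C. Supernatant tryptase measured with fluorogenic substrate (30 min, room temperature); LTC4 quantified by ELISA on diluted supernatant.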

[2] = test system: cultured human mast cells (CHMC); test: CHMC low cell density ionomycin activation: tryptase assay; assay type: cell-based; conditions: read-out: CHMC Ionomycin Tryptase
[3] = Homo sapiens, Mast cell, Low Density CHMC, anti-IgE activation, tryptase readout
[4] = Homo sapiens, Mast cell, Low Density CHMC, ionomycin activation, tryptase readout
[5] = Low Density CHMC, anti-IgE activation, tryptase readout
[6] = Low Density CHMC, ionomycin activation, tryptase readout

IC50 [1, 3] [µM] | IC50 [2, 4] [µM] | SMILES | also measured
> 10 | > 10 | Cc1cc(CNc2ncc(F)c(Nc3cccc(O)c3)n2)c(C)o1 [Compound R945162, N2-[(2,5-Dimethyl-3-furyl)methyl]-5-fluoro-N4-(3-hydroxyphenyl)-2,4-pyrimidinediamine] | 
0.8 | > 10 | Cc1cc(Nc2nc(Nc3cccc(O)c3)ncc2F)cc(Cl)c1O [Compound R940235, N4-(3-Chloro-4-hydroxy-5-methylphenyl)-5-fluoro-N2-(3-hydroxyphenyl)-2,4-pyrimidinediamine] | 
0.34 | > 10 | CNC(=O)C=Nc1cccc(Nc2ncc(F)c(Nc3cccc(O)c3)n2)c1 [Compound R950217, 5-Fluoro-N4-(3-hydroxyphenyl)-N2-[3-(N-methylamino)carbonylmethyleneaminophenyl]-2,4-pyrimidinediamine] | 
8.41 | > 10 | CC(=O)Nc1cccc(Nc2ncc(F)c(Nc3cccc(NC(C)=O)c3)n2)c1 [Compound R926682, N2,N4-Bis(3-acetamidophenyl)-5-fluoro-2,4-pyrimidinediamine] | 
0.489 | > 10 | CN(C)C(=O)C=Nc1cccc(Nc2ncc(F)c(Nc3cccc(O)c3)n2)c1 [Compound R950220, N2-[3-(N,N-Dimethylamino)carbonylmethyleneaminophenyl]-5-fluoro-N4-(3-hydroxyphenyl)-2,4-pyrimidinediamine] | 
2.56 | 7.81 | COc1ccc(Nc2ncc(F)c(Nc3ccc4c(c3)OCCO4)n2)c(C)c1 [Compound R926845, N4-(3,4-Ethylenedioxyphenyl)-5-fluoro-N2-(4-methoxy-2-methylphenyl)-2,4-pyrimidinediamine] | 
0.361 | > 10 | Oc1cccc(Nc2nc(Nc3cc(Cl)c(O)c(Cl)c3)ncc2F)c1 [Compound R926890, 5-Fluoro-N2-(3,5-dichloro-4-hydroxyphenyl)-N4-(3-hydroxyphenyl)-2,4-pyrimidinediamine] | 
0.245 | > 10 | COc1cc(Nc2ncc(F)c(Nc3cccc(O)c3)n2)cc(OC)c1OC [Compound R926761, 5-Fluoro-N4-(3-hydroxyphenyl)-N2-(3,4,5-trimethoxyphenyl)-2,4-pyrimidinediamine] | 
> 10 | > 10 | Cc1c(O)cccc1Nc1ncc(F)c(Nc2cccc(O)c2C)n1 [Compound R945038, N2,N4-Bis(3-hydroxy-2-methylphenyl)-5-fluoro-2,4-pyrimidinediamine] | 
> 10 | > 10 | O=C(O)c1cc(Nc2ncc(F)c(Nc3ccc(O)c(C(=O)O)c3)n2)ccc1O [Compound R945041, N2,N4-Bis(3-carboxy-4-hydroxyphenyl)-5-fluoro-2,4-pyrimidinediamine] | 

The next lines start with the compound.

SMILES | IC50 [1, 3] [µM] | IC50 [2, 4] [µM] | also measured
COCCOc1cccc(Nc2ncc(F)c(Nc3cccc(OCCOC)c3)n2)c1 [Compound R935076, N2,N4-Bis[3-(2-methoxyethyl)oxyphenyl]-5-fluoro-2,4-pyrimidinediamine] | 4.15 | > 10 | 
Oc1cccc(Nc2nc(NCc3ccccn3)ncc2F)c1 [Compound R945166, 5-Fluoro-N4-(3-hydroxyphenyl)-N2-(2-pyridylmethyl)-2,4-pyrimidinediamine] | > 10 | > 10 | 
c1ccc(-c2cc(Nc3ccc4c(c3)OCCO4)nc(Nc3ccc4c(c3)OCCO4)n2)cc1 [Compound R925811, N2,N4-Bis(3,4-ethylenedioxyphenyl)-6-phenyl-2,4-pyrimidinediamine] | 3.3 | > 10 | 
COC(=O)C1Cc2cc(Nc3ncc(F)c(Nc4ccc(F)c(F)c4)n3)ccc2O1 (racemic) [Compound R927030, (±)-N4-(3,4-Difluorophenyl)-N2-(2,3-dihydro-2-methoxycarbonylbenzofuran-5-yl)-5-fluoro-2,4-pyrimidinediamine] | 0.26 | > 10 | 
Oc1cccc(Nc2cc(-c3ccccc3)nc(Nc3cccc(O)c3)n2)c1 [Compound R925812, N2,N4-Bis(3-hydroxyphenyl)-6-phenyl-2,4-pyrimidinediamine] | 5.8 | > 10 | 
COc1ccc(Nc2nc(NCCN3CCN(Cc4ccccc4)CC3)ncc2F)cc1OC [Compound R940262, N2-[2-(N-Benzylpiperazino)ethyl]-N4-(3,4-dimethoxyphenyl)-5-fluoro-2,4-pyrimidinediamine] | > 10 | > 10 | 
COC(=O)c1cc(N)cc(Nc2ncc(F)c(Nc3cc(N)cc(C(=O)OC)c3)n2)c1 [Compound R950134, N2,N4-Bis(3-amino-5-methoxycarbonylphenyl)-5-fluoro-2,4-pyrimidinediamine] | 1.88 | > 10 | 
COc1cc(Nc2nc(Nc3cccc(OCCO)c3)ncc2F)cc(OC)c1 [Compound R935181, N4-(3,5-Dimethoxyphenyl)-5-fluoro-N2-[3-(2-hydroxyethoxy)phenyl]-2,4-pyrimidinediamine] | 1.76 | > 10 | 
O=[N+]([O-])c1cc(Nc2ccnc(Nc3ccc(Cl)c([N+](=O)[O-])c3)n2)ccc1Cl [Compound R950154, N2,N4-Bis(4-chloro-3-nitrophenyl)-2,4-pyrimidinediamine] |  |  | IC50 ([1]; Homo sapiens, Mast cell): 2.08 µM; IC50 ([2]; Homo sapiens, Mast cell): > 10 µM
CNC(=O)C1Cc2cc(Nc3ncc(F)c(Nc4ccc(OC)c(Cl)c4)n3)ccc2O1 (stereo not shown) [Compound R926955, N4-(3-Chloro-4-methoxyphenyl)-5-fluoro-N2-[2,3-dihydro-2-[(N-methylamino)carbonyl]benzofuran-5-yl]-2,4-pyrimidinediamine] | 0.36 | > 10 | 
CCOC(=O)Cc1ccc(Nc2ncc(C#N)c(Nc3ccc(CC(=O)OCC)cc3)n2)cc1 [Compound R926662, N2,N4-Bis[4-(ethoxycarbonylmethyl)phenyl]-5-cyano-2,4-pyrimidinediamine] | > 10 | > 10 | 
Cn1nc(I)c2cc(Nc3ncc(F)c(Nc4ccc(I)c(O)c4I)n3)ccc21 [Compound R935221, N4-(2,4-Diiodo-3-hydroxypheny)-5-fluoro-N2-(3-iodo-1-methyl-indazoline-5-yl)-2,4-pyrimidinediamine] |  |  | IC50 [1, 5]: > 10 µM; IC50 [2, 6]: > 10 µM
CCOC(=O)CNc1nc(NCC(=O)OCC)c(N)c(C(=O)OCC)n1 [Compound R925865, 5-Amino-N2,N4-bis(ethoxycarbonylmethyl)-6-ethoxycarbonyl-2,4-pyrimidinediamine] | > 10 | > 10 | 
Oc1cccc(Nc2nc(NCc3cccnc3)ncc2F)c1 [Compound R945165, 5-Fluoro-N4-(3-hydroxyphenyl)-N2-(3-pyridylmethyl)-2,4-pyrimidinediamine] | > 10 | > 10 | 
Fc1cnc(Nc2ccc3c(c2)OCCO3)nc1NCc1csc2ccc(Cl)cc12 [Compound R926721, N4-[(5-Chloro-1-benzothiophen-3-yl)methyl]-N2-(3,4-ethylenedioxyphenyl)-5-fluoro-2,4-pyrimidinediamine] | 4.44 | > 10 | 
CCOC(=O)c1cnc(Nc2ccc3c(c2)OCCO3)nc1NOCc1ccccc1 [Compound R925837, N4-Benzyloxy-5-ethoxycarbonyl-N2-(3,4-ethylenedioxyphenyl)-2,4-pyrimidinediamine] | > 10 | > 10 | 
O=C1CCNC2=COc3ccc(Nc4nc(Nc5cccc(O)c5)ncc4F)cc3N12 [Compound R945237, 5-Fluoro-N2-(3-hydroxyphenyl)-N4-[1-oxo-1,2,3,6-tetrahydropyrimido[2,1-c][1,4]benzoxazin-9-yl]-2,4-pyrimidinediamine] | 0.461 | > 10 | 
CNc1ncc(F)c(Nc2ccc3c(c2)OCCO3)n1 [Compound R950189] |  |  | IC50 [1, 5]: 10 µM; IC50 [2, 6]: > 10 µM
Nc1nc(N(CC(O)c2ccccc2)c2ccc3c(c2)OCCO3)ncc1F (stereo not shown) [Compound R925765, N2-(3,4-Ethylenedioxyphenyl)-5-fluoro-N2-(2-hydroxy-2-phenylethyl)-2,4-pyrimidinediamine] | 6.8 | > 10 | 
Fc1cnc(NCC2COc3ccccc3O2)nc1Nc1ccc2c(c1)OCCO2 (stereo not shown) [Compound R950206, N2-(2,3-Dihydro-1,4-benzodioxin-2-ylmethyl)-N4-(3,4-ethylenedioxyphenyl)-5-fluoro-2,4-pyrimidinediamine] | 3.66 | > 10 | 
COC(=O)Cn1ncc2cc(Nc3ncc(F)c(Nc4cccc(O)c4)n3)ccc21 [Compound R935237, 5-Fluoro-N4-(3-hydroxyphenyl)-N2-[1-(methoxycarbonyl)methyl-indazoline-5-yl]-2,4-pyrimidinediamine] |  |  | IC50 [1, 5]: 0.24 µM; IC50 [2, 6]: > 10 µM
CC(C)(CO)c1ccc(Nc2nc(Nc3cccc(OCCO)c3)ncc2F)cc1 [Compound R935161, 5-Fluoro-N4-[4-(2-hydroxy-1,1-dimethylethyl)phenyl]-N2-[3-(2-hydroxyethoxy)phenyl]-2,4-pyrimidinediamine] | 0.277 | > 10 | 
COC(=O)c1cc(Nc2nc(Nc3cccc(O)c3)ncc2Br)cn1C [Compound R935025, 5-Bromo-N2-(3-hydroxyphenyl)-N4-(N-methyl-2-carbomethoxypyrrol-4-yl)-2,4-pyrimidinediamine] | 1.04 | > 10 | 
Oc1cccc(Nc2ncc(F)c(NC3c4ccccc4-c4ccccc43)n2)c1 [Compound R935020, N4-(Fluoren-9-yl)-5-fluoro-N2-(3-hydroxyphenyl)-2,4-pyrimidinediamine] | > 10 | > 10 | 
Fc1cnc(Nc2ccc(OCc3ccccc3)c(C(F)(F)F)c2)nc1Nc1ccc(OCc2ccccc2)c(C(F)(F)F)c1 [Compound R950090, N2,N4-Bis(4-benzyloxy-3-trifluoromethylphenyl)-5-fluoro-2,4-pyrimidinediamine] | > 10 | > 10 | 
